According to patent US5258406A, “Sulfonimidamides” (priority 1992, dated 1993):
Where two headings read alike, the source gives them in different places.

Columns and labels:
LX1 = format: in vivo
Description: (§1) The compounds were tested in C3H mice bearing a 6C3HED lymphosarcoma, also known as the Gardner lymphosarcoma (GLS), and in a variety of human tumor xenografts in CD1 nu/nu mice, including CX-1, LX-1, HXGC3, and VRC5. The 6C3HED lymphosarcoma was obtained from the Division of Cancer Treatment, National […] Institute, Tumor Bank, maintained at E. G. and G. Mason Research (Worcester, Mass.). The CX-1 human colon carcinoma and the LX-1 human lung carcinoma xenografts were obtained from the National Cancer Institute. The HXGC3 and VRC5 human colon xenografts were obtained from Dr. P. J. Houghton, St. Jude Children's Hospital in Memphis (see Br. J. Cancer, 37, 213 (1978)). First passage tumor was stored in liquid nitrogen using standard techniques. The transplanted tumor was reestablished from the Tumor Bank every six months or as needed. The tumor was maintained by serial passage twice weekly in C3H mice.
(§2) In the procedure the tumor was removed from passage animals and minced into 1- to 3-mm square fragments using sterile techniques. Tumor pieces were checked for sterility using both Antibiotic Medium 1 and Brain Heart Infusion (Difco, Detroit, Mich.). Recipient mice were shaved and tumor pieces were implanted subcutaneously in the auxiliary region by trocar. Drug therapy on the appropriate schedule was initiated on the day after tumor implant for 6C3HED and after a seven (7) day delay for xenografts (or other delay as noted in Table 2). The compound being tested was mixed with 2.5% Emulphor EL620 from GAF Corporation (1:40 dilution in saline). Food and water were provided ad libitium. The drug was administered orally in 0.5 ml of 2.5% Emulphor (unless otherwise indicated). The tumor was measured the day after treatment ended with two dimensional measurements (width and length) of the tumor taken using automated digital calipers interfaced to a microcomputer. Approximate weight for the tumor was calculated using the following formula [Worzalla, J. F., et al., Invest. New Drugs, 8, 241 (1990], (tumor weight in mg)=(width in mm)^2 ×(length in mm)/2.
(§3) At least one control group of an equal number of mice was treated with the same volume of 2.5% Emulphor only. The percent inhibition was determined by subtracting the ratio of the mean tumor size of the test group relative to the control group from one and multiplying the result times 100.
(§4) The results of several experiments in mice bearing a 6C3HED lymphosarcoma (or other tumor where indicated) when the indicated compounds were administered are provided in Table 2. In Table 2, column 1 gives the Example number of the compound used, column 2 lists the dose level in mg/kg, column 3 provides the percent inhibition of tumor growth, column 4 gives the number of mice which died relative to the total number of animals in the group, column 5 gives the method of administration of the compound, and column 6 gives the dosage schedule. The protocol used with other tumors was the same as with the 6C3HED lymphosarcoma.

6C3HED lymphosarcoma = assay: animal or person; format: in vivo; conditions: for inhibition in vivo at 600 mg/kg: read-out: % inhibition of tumor growth, oral, 600 mg/kg, DX 8
Description: as §1, §2, §3, §4

[1] = oral, 150 mg/kg, Days 1, 3, 5, 7
[2] = Mus musculus, 6C3HED, po, read-out: % inhibition of tumor growth, oral, 150 mg/kg, BIDX 8

CN=S(=O)(NC(=O)Nc1ccc(Cl)cc1)c1ccc(C)cc1 (stereo not shown) [Example 3, N-[[(4-Chlorophenyl)amino]carbonyl]-N',4-dimethylbenzenesulfonimidamide]
% inhibition of tumor growth (LX1; oral, 150 mg/kg, BIDX 10): TOX
Tox/Tot (mice which died / total) (LX1; oral, 150 mg/kg, BIDX 10): 8/8
% inhibition of tumor growth (LX1; oral, 300 mg/kg, BIDX 10): TOX
Tox/Tot (mice which died / total) (LX1; oral, 300 mg/kg, BIDX 10): 8/8
inhibition in vivo at 12.5 mg/kg (6C3HED lymphosarcoma; Mus musculus, 6C3HED, po, read-out: % inhibition of tumor growth, oral, 12.5 mg/kg, BIDX 8): 58%
inhibition in vivo at 25 mg/kg (6C3HED lymphosarcoma; Mus musculus, 6C3HED, po, read-out: % inhibition of tumor growth, oral, 25 mg/kg, BIDX 8): 82%
inhibition in vivo at 50 mg/kg (6C3HED lymphosarcoma; Mus musculus, 6C3HED, po, read-out: % inhibition of tumor growth, oral, 50 mg/kg, BIDX 8): 91%
inhibition in vivo at 75 mg/kg (6C3HED lymphosarcoma; Mus musculus, 6C3HED, po, read-out: % inhibition of tumor growth, oral, 75 mg/kg, DX 8): 81%
inhibition in vivo at 100 mg/kg (6C3HED lymphosarcoma; Mus musculus, 6C3HED, po, read-out: % inhibition of tumor growth, oral, 100 mg/kg, BIDX 8): 99%
inhibition in vivo at 150 mg/kg (6C3HED lymphosarcoma; Mus musculus, 6C3HED, po, read-out: % inhibition of tumor growth, oral, 150 mg/kg, DX 8): 93%
inhibition in vivo at 200 mg/kg (6C3HED lymphosarcoma; Mus musculus, 6C3HED, po, read-out: % inhibition of tumor growth, oral, 200 mg/kg, BIDX 8): 100%
inhibition in vivo at 300 mg/kg (6C3HED lymphosarcoma; Mus musculus, 6C3HED, po, read-out: % inhibition of tumor growth, oral, 300 mg/kg, DX 8): 99%
inhibition in vivo at 600 mg/kg (6C3HED lymphosarcoma; Mus musculus, 6C3HED, po): 100%
Tox/Tot (mice which died / total) (6C3HED lymphosarcoma; oral, 12.5 mg/kg, BIDX 8): 0/10
Tox/Tot (mice which died / total) (6C3HED lymphosarcoma; oral, 25 mg/kg, BIDX 8): 0/10
Tox/Tot (mice which died / total) (6C3HED lymphosarcoma; oral, 50 mg/kg, BIDX 8): 0/10
Tox/Tot (mice which died / total) (6C3HED lymphosarcoma; oral, 75 mg/kg, DX 8): 0/10
Tox/Tot (mice which died / total) (6C3HED lymphosarcoma; oral, 100 mg/kg, BIDX 8): 0/10
% inhibition of tumor growth (6C3HED lymphosarcoma; oral, 150 mg/kg, DX 8): 96%
Tox/Tot (mice which died / total) (6C3HED lymphosarcoma; oral, 150 mg/kg, DX 8): 1/10
Tox/Tot (mice which died / total) (6C3HED lymphosarcoma; oral, 200 mg/kg, BIDX 8): 0/10
Tox/Tot (mice which died / total) (6C3HED lymphosarcoma; oral, 300 mg/kg, DX 8): 0/10
Tox/Tot (mice which died / total) (6C3HED lymphosarcoma; oral, 600 mg/kg, DX 8): 4/10
% inhibition of tumor growth (6C3HED lymphosarcoma; oral, 1200 mg/kg, DX 8): TOX
Tox/Tot (mice which died / total) (6C3HED lymphosarcoma; oral, 1200 mg/kg, DX 8): 10/10

Cc1cc(S(=N)(=O)NC(=O)Nc2ccc(Cl)cc2)cc(C)c1C (stereo not shown) [Example 45, N-[[(4-chlorophenyl)amino]carbonyl]-3,4,5-trimethylbenzenesulfonimidamide]
Tox/Tot (mice which died / total) (LX1; oral, 150 mg/kg, Days 1, 4, 7, 10, from day 7 after implant): 0/9
Tox/Tot (mice which died / total) (LX1; oral, 300 mg/kg, Days 1, 4, 7, 10, from day 7 after implant): 0/10
% inhibition of tumor growth (LX1; po, 150 mg/kg, 168 h): 40%
% inhibition of tumor growth (LX1; po, 300 mg/kg, 168 h): 31%
inhibition in vivo at 9.37 mg/kg (6C3HED lymphosarcoma; Mus musculus, 6C3HED, po, read-out: % inhibition of tumor growth, oral, 9.37 mg/kg, Days 1, 3, 5, 7): 78%
inhibition in vivo at 18.75 mg/kg (6C3HED lymphosarcoma; Mus musculus, 6C3HED, po, read-out: % inhibition of tumor growth, oral, 18.75 mg/kg, Days 1, 3, 5, 7): 95%
inhibition in vivo at 37.5 mg/kg (6C3HED lymphosarcoma; Mus musculus, 6C3HED, po, read-out: % inhibition of tumor growth, oral, 37.5 mg/kg, Days 1, 3, 5, 7): 99%
inhibition in vivo at 75 mg/kg (6C3HED lymphosarcoma; Mus musculus, 6C3HED, po, read-out: % inhibition of tumor growth, oral, 75 mg/kg, Days 1, 3, 5, 7): 99%
inhibition in vivo at 150 mg/kg (6C3HED lymphosarcoma; Mus musculus, 6C3HED, po, read-out: % inhibition of tumor growth, oral, 150 mg/kg, Days 1, 3, 5, 7): 100%
inhibition in vivo at 300 mg/kg (6C3HED lymphosarcoma; Mus musculus, 6C3HED, po, read-out: % inhibition of tumor growth, oral, 300 mg/kg, Days 1, 3, 5, 7): 100%
Tox/Tot (mice which died / total) (6C3HED lymphosarcoma; oral, 9.37 mg/kg, Days 1, 3, 5, 7): 0/10
Tox/Tot (mice which died / total) (6C3HED lymphosarcoma; oral, 18.75 mg/kg, Days 1, 3, 5, 7): 0/10
Tox/Tot (mice which died / total) (6C3HED lymphosarcoma; oral, 37.5 mg/kg, Days 1, 3, 5, 7): 2/10
Tox/Tot (mice which died / total) (6C3HED lymphosarcoma; oral, 75 mg/kg, Days 1, 3, 5, 7): 1/10
% inhibition of tumor growth (6C3HED lymphosarcoma; [1]): 99%
Tox/Tot (mice which died / total) (6C3HED lymphosarcoma; [1]): 2/10
Tox/Tot (mice which died / total) (6C3HED lymphosarcoma; oral, 300 mg/kg, Days 1, 3, 5, 7): 3/10

N=S(=O)(NC(=O)Nc1ccc(Cl)cc1)c1ccc2c(c1)CCC2 (stereo not shown) [Example 54, N-[[(4-chlorophenyl)amino]carbonyl]-5-indanylsulfonimidamide]
Tox/Tot (mice which died / total) (6C3HED lymphosarcoma; IP, 12.5 mg/kg, BIDX 8): 0/10
Tox/Tot (mice which died / total) (6C3HED lymphosarcoma; IP, 25 mg/kg, BIDX 8): 0/10
Tox/Tot (mice which died / total) (6C3HED lymphosarcoma; IP, 50 mg/kg, BIDX 8): 0/10
Tox/Tot (mice which died / total) (6C3HED lymphosarcoma; IP, 100 mg/kg, BIDX 8): 0/10
Tox/Tot (mice which died / total) (6C3HED lymphosarcoma; IP, 150 mg/kg, DX 8): 1/10
Tox/Tot (mice which died / total) (6C3HED lymphosarcoma; IP, 300 mg/kg, DX 8): 3/10
Tox/Tot (mice which died / total) (6C3HED lymphosarcoma; IV, 12.5 mg/kg, DX 8): 0/10
Tox/Tot (mice which died / total) (6C3HED lymphosarcoma; IV, 25 mg/kg, DX 8): 0/10
inhibition in vivo at 12.5 mg/kg (6C3HED lymphosarcoma; Mus musculus, 6C3HED, ip, read-out: % inhibition of tumor growth, IP, 12.5 mg/kg, BIDX 8): 6%
inhibition in vivo at 25 mg/kg (6C3HED lymphosarcoma; Mus musculus, 6C3HED, ip, read-out: % inhibition of tumor growth, IP, 25 mg/kg, BIDX 8): 30%
inhibition in vivo at 50 mg/kg (6C3HED lymphosarcoma; Mus musculus, 6C3HED, ip, read-out: % inhibition of tumor growth, IP, 50 mg/kg, BIDX 8): 44%
inhibition in vivo at 100 mg/kg (6C3HED lymphosarcoma; Mus musculus, 6C3HED, ip, read-out: % inhibition of tumor growth, IP, 100 mg/kg, BIDX 8): 70%
inhibition in vivo at 150 mg/kg (6C3HED lymphosarcoma; Mus musculus, 6C3HED, ip, read-out: % inhibition of tumor growth, IP, 150 mg/kg, DX 8): 86%
inhibition in vivo at 300 mg/kg (6C3HED lymphosarcoma; Mus musculus, 6C3HED, ip, read-out: % inhibition of tumor growth, IP, 300 mg/kg, DX 8): 94%
inhibition in vivo at 12.5 mg/kg (6C3HED lymphosarcoma; Mus musculus, 6C3HED, iv, read-out: % inhibition of tumor growth, IV, 12.5 mg/kg, DX 8): 3%
inhibition in vivo at 25 mg/kg (6C3HED lymphosarcoma; Mus musculus, 6C3HED, iv, read-out: % inhibition of tumor growth, IV, 25 mg/kg, DX 8): 19%
inhibition in vivo at 150 mg/kg (6C3HED lymphosarcoma; [2]): 22%
inhibition in vivo at 300 mg/kg (6C3HED lymphosarcoma; Mus musculus, 6C3HED, po, read-out: % inhibition of tumor growth, oral, 300 mg/kg, BIDX 8): 33%
inhibition in vivo at 600 mg/kg (6C3HED lymphosarcoma; Mus musculus, 6C3HED, po): 34%
Tox/Tot (mice which died / total) (6C3HED lymphosarcoma; oral, 150 mg/kg, BIDX 8): 0/10
Tox/Tot (mice which died / total) (6C3HED lymphosarcoma; oral, 150 mg/kg, DX 8): 0/10
Tox/Tot (mice which died / total) (6C3HED lymphosarcoma; oral, 300 mg/kg, BIDX 8): 0/10
Tox/Tot (mice which died / total) (6C3HED lymphosarcoma; oral, 300 mg/kg, DX 8): 0/10
Tox/Tot (mice which died / total) (6C3HED lymphosarcoma; oral, 600 mg/kg, DX 8): 0/10

CN=S(=O)(NC(=O)Nc1ccc(Cl)cc1)c1ccc2c(c1)CCC2 (stereo not shown) [Example 55, N-[[(4-chlorophenyl)amino]carbonyl]-N'-methyl-5-indanylsulfonimidamide]
inhibition in vivo at 75 mg/kg (6C3HED lymphosarcoma; Mus musculus, 6C3HED, po, read-out: % inhibition of tumor growth, oral, 75 mg/kg, BIDX 8): 70%
inhibition in vivo at 150 mg/kg (6C3HED lymphosarcoma; [2]): 75%
Tox/Tot (mice which died / total) (6C3HED lymphosarcoma; oral, 75 mg/kg, BIDX 8): 0/10
Tox/Tot (mice which died / total) (6C3HED lymphosarcoma; oral, 150 mg/kg, BIDX 8): 1/10
